According to paper PMC10450187, “Ncs2* mediates in vivo virulence of pathogenic yeast through sulphur modification of cytoplasmic transfer RNA” (Nucleic Acids Research, 2023):
Numbering of substitutions follows the chain as printed. Names may count otherwise.

T1: CtNcs2 (Thermochaetoides thermophila, UniProt G0SFJ9)
T1 construct: gene NCS2; codon-optimized, E. coli BL21(DE3) pRARE, pETM30 N-terminal 6xHis-GST tag (TEV-cleavable, optionally cleaved), GSTrap, heparin, size exclusion
T1 sequence (G0SFJ9 1-406): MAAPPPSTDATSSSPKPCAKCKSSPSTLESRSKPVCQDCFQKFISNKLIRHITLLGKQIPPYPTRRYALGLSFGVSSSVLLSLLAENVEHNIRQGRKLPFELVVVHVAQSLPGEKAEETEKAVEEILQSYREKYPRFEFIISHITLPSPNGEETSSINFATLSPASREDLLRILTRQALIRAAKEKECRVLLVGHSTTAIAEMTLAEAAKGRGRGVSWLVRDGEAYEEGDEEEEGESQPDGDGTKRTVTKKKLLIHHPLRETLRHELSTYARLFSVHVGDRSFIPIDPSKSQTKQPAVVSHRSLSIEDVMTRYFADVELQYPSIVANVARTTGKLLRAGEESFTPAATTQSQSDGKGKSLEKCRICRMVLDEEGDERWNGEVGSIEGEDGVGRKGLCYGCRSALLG

B1: Ncs2* (Ncs2 H71L), S. cerevisiae (natural protein)
chain: MECQRCPASARNPATVESRKEKFCDECFIKFVSTKQRKQMMKDEYFRNLFKVIYPFEKEGSVSKILLPLSLSDSGSLVMLDIVHDLLLEQTKQHNNRTGFTVDVLTVFTEENVSVIKERMESLINEKMSQLNKISNIFNVHFIDVNEFFNNASEVSTFIIDNENFEIFSKSKSVDDSNILTLKEILGKYCLNNSSRSDLISIIKTQLIKHFAYENGYNAIMWGHSMTKLSEVIISLVVKGKGSQIATFLDSESFDTLNNKPCKYKNLYPMKDLLSVEIESFLQIRNLAQFLINVEETNVKPNCLIARKSLPSLGQQKLVKNMTINEITNKYFQDIQNDYSNIISTVLRTADKLTQPKSSMAKPSQCQICQSKIYTNPSNWLNRITVTSPYPVETTEEKYLFKQWQDSKLGQSHTHYVELLNEIKQGASNSLDVEDGDVKLCYGCLILLNTSIKDKNLVWPKVDTMDITANATNKNKELSQILDQFEINSDGEE
B2: Ncs2^H71A, S. cerevisiae (natural protein)
chain: B1 chain with L71A
B3: Ncs2^H71I, S. cerevisiae (natural protein)
chain: B1 chain with L71I

How the values were obtained:
CtNcs2 = target: T1, CtNcs2; assay: thermal shift assay (SYPRO Orange); format: binding; conditions: 2 mM MgCl2, 20 mM Tris pH 8, 150 mM NaCl, 1 mM DTT
[1] = target: Ncs6 (Needs-Cla4-to-Survive 6), S. cerevisiae (S. cerevisiae, UniProt P53088 1-359); assay: two-hybrid; conditions: partners not purified
Chain of Ncs6 (Needs-Cla4-to-Survive 6), S. cerevisiae (P53088 whole entry): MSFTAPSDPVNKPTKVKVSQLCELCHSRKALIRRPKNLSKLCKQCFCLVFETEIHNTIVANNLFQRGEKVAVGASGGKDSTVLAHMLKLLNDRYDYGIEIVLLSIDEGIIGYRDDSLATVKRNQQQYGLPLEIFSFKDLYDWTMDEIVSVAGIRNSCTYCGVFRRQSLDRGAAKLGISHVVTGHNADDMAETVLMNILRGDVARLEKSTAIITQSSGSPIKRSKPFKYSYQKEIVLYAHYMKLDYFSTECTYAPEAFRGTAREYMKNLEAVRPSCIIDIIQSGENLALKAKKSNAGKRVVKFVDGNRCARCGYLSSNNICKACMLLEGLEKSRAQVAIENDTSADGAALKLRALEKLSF

Row | Molecule | Miller units (beta-galactosidase, two-hybrid) [1] | further results
1 | Nc1ncnc2c1ncn2[C@@H]1O[C@H](COP(=O)(O)OP(=O)(O)O)[C@@H](O)[C@H]1O [ADP] |  | melting temperature (CtNcs2; 1 mM ADP): stability of Ncs2 increases significantly, when it is bound to ATP, ADP or the non-hydrolysable AMP-PNP
2 | Nc1ncnc2c1ncn2[C@@H]1O[C@H](COP(=O)(O)OP(=O)(O)NP(=O)(O)O)[C@@H](O)[C@H]1O [AMP-PNP] |  | melting temperature (CtNcs2; 1 mM AMP-PNP): stability of Ncs2 increases significantly, when it is bound to ATP, ADP or the non-hydrolysable AMP-PNP
3 | Nc1ncnc2c1ncn2[C@@H]1O[C@H](COP(=O)(O)OP(=O)(O)OP(=O)(O)O)[C@@H](O)[C@H]1O [ATP] |  | melting temperature (CtNcs2; 1 mM ATP): stability of Ncs2 increases significantly, when it is bound to ATP, ADP or the non-hydrolysable AMP-PNP
4 | B1 | 252 MU | 
5 | B2 | 130 MU | 
6 | B3 | 109 MU | 
